Assay results reported in publication PMC7127696 (Bioorganic & Medicinal Chemistry, 2015).
Where two headings read alike, the source gives them in different places.

How the values were obtained:
[1] = test system: Reovirus-1; assay: CPE reduction assay, reovirus-1 in Vero cells; format: cell-based; conditions: for EC50: Vero, read-out: Antiviral EC50 value, Reovirus-1
[2] = test system: Para-influenza-3 virus; assay: CPE reduction assay, para-influenza-3 virus in Vero cells; format: cell-based; conditions: for EC50: Vero, read-out: Antiviral EC50 value, Para-influenza-3 virus
[3] = test system: Respiratory syncytial virus; assay: CPE reduction assay, respiratory syncytial virus in HeLa cells; format: cell-based; conditions: for Selectivity index (ratio of MCC to antiviral EC50), Respiratory syncytial virus: value in square brackets
[4] = test system: Sindbis virus; assay: CPE reduction assay, Sindbis virus in Vero cells; format: cell-based; conditions: for EC50: Sindbis virus, Vero, read-out: Antiviral EC50 value, Sindbis virus
[5] = test system: Vero cells; conditions: microscopy
[6] = test system: HEL: human embryonic lung fibroblast cells; conditions: microscopy
[7] = test system: MDCK: Madin-Darby canine kidney cells; conditions: microscopy
[8] = test system: HeLa cells; conditions: microscopy
[9] = test system: Punta Toro virus; assay: CPE reduction assay, Punta Toro virus in Vero cells; format: cell-based
[10] = test system: Coxsackie B4 virus; assay: CPE reduction assay, Coxsackie B4 virus in Vero cells; format: cell-based
[11] = test system: Coxsackie B4 virus; assay: CPE reduction assay, Coxsackie B4 virus in HeLa cells; format: cell-based
[12] = test system: Vesicular stomatitis virus; format: cell-based
[13] = Vero cells, CPE inhibition, microscopy, mean ± SEM of three tests
[14] = Vero cells, value in square brackets
[15] = Vero cells, CPE inhibition, microscopy
[16] = CPE inhibition, microscopy, mean ± SEM of three tests

| Molecule | EC50 [1] | EC50 [2] | MCC (compound concentration causing minimal changes in cell morphology) [5] | MCC (compound concentration causing minimal changes in cell morphology) [6] [μg/mL] | MCC (compound concentration causing minimal changes in cell morphology) [7] [μg/mL] | MCC (compound concentration causing minimal changes in cell morphology) [8] [μg/mL] | other results |
| --- | --- | --- | --- | --- | --- | --- | --- |
| CNC(=S)NNC(=O)c1[nH]c2ccc(F)cc2c1-c1ccccc1 [Compound 6a, 1-((5-Fluoro-3-phenyl-1H-indol-2-yl)carbonyl)-4-methyl-3-thiosemicarbazide] | > 100 µg/mL | > 100 µg/mL |  |  |  |  |  |
| CCNC(=S)NNC(=O)c1[nH]c2ccc(F)cc2c1-c1ccccc1 [Compound 6b, 4-Ethyl-1-((5-fluoro-3-phenyl-1H-indol-2-yl)carbonyl)-3-thiosemicarbazide] | > 100 µg/mL | > 100 µg/mL |  |  |  |  | Selectivity index (ratio of MCC to antiviral EC50), Respiratory syncytial virus [3]: ≥ 5; EC50 [4]: 3.2 ± 0.8 µg/mL |
| CCCNC(=S)NNC(=O)c1[nH]c2ccc(F)cc2c1-c1ccccc1 [Compound 6c, 1-((5-Fluoro-3-phenyl-1H-indol-2-yl)carbonyl)-4-propyl-3-thiosemicarbazide] | > 100 µg/mL | > 100 µg/mL | 100 μg/mL |  |  |  | Selectivity index (ratio of MCC to antiviral EC50), Respiratory syncytial virus [3]: ≥ 9 |
| C=CCNC(=S)NNC(=O)c1[nH]c2ccc(F)cc2c1-c1ccccc1 [Compound 6d, 4-Allyl-1-((5-fluoro-3-phenyl-1H-indol-2-yl)carbonyl)-3-thiosemicarbazide] | > 100 µg/mL | > 100 µg/mL |  |  |  |  | Selectivity index (ratio of MCC to antiviral EC50), Respiratory syncytial virus [3]: ≥ 5 |
| CCCCNC(=S)NNC(=O)c1[nH]c2ccc(F)cc2c1-c1ccccc1 [Compound 6e, 4-Butyl-1-((5-fluoro-3-phenyl-1H-indol-2-yl)carbonyl)-3-thiosemicarbazide] | > 100 µg/mL | > 100 µg/mL |  | >10 |  |  |  |
| O=C(NNC(=S)NCc1ccccc1)c1[nH]c2ccc(F)cc2c1-c1ccccc1 [Compound 6f, 4-Benzyl-1-((5-fluoro-3-phenyl-1H-indol-2-yl)carbonyl)-3-thiosemicarbazide] | > 100 µg/mL | > 100 µg/mL |  | >10 | >10 |  |  |
| O=C(NNC(=S)NCCc1ccccc1)c1[nH]c2ccc(F)cc2c1-c1ccccc1 [Compound 6g, 1-((5-Fluoro-3-phenyl-1H-indol-2-yl)carbonyl)-4-phenethyl-3-thiosemicarbazide] | > 100 µg/mL | > 100 µg/mL |  |  |  |  |  |
| CN1C(=O)CS/C1=N\NC(=O)c1[nH]c2ccc(F)cc2c1-c1ccccc1 [Compound 7a, 5-Fluoro-N′-(3-methyl-4-oxo-1,3-thiazolidinon-2-ylidene)-3-phenyl-1H-indol-2-carbohydrazide] | > 100 µg/mL | > 100 µg/mL |  | >100 | 100 | 100 |  |
| CCN1C(=O)CS/C1=N\NC(=O)c1[nH]c2ccc(F)cc2c1-c1ccccc1 [Compound 7b, N′-(3-Ethyl-4-oxo-1,3-thiazolidinon-2-ylidene)-5-fluoro-3-phenyl-1H-indol-2-carbohydrazide] | > 100 µg/mL | > 100 µg/mL |  | >100 | 100 | >100 |  |
| CCCN1C(=O)CS/C1=N\NC(=O)c1[nH]c2ccc(F)cc2c1-c1ccccc1 [Compound 7c, 5-Fluoro-N′-(4-oxo-3-propyl-1,3-thiazolidinon-2-ylidene)-3-phenyl-1H-indol-2-carbohydrazide] | > 100 µg/mL | > 100 µg/mL | >100 μg/mL | >100 | >100 | >100 |  |
| C=CCN1C(=O)CS/C1=N\NC(=O)c1[nH]c2ccc(F)cc2c1-c1ccccc1 [Compound 7d, N′-[(2Z)-3-Allyl-4-oxo-1,3-thiazolidinon-2-ylidene]-5-fluoro-3-phenyl-1H-indol-2-carbohydrazide] | > 100 µg/mL | > 100 µg/mL | >100 μg/mL | >100 | 100 | >100 |  |
| CCCCN1C(=O)CS/C1=N\NC(=O)c1[nH]c2ccc(F)cc2c1-c1ccccc1 [Compound 7e, N′-(3-Butyl-4-oxo-1,3-thiazolidinon-2-ylidene)-5-fluoro-3-phenyl-1H-indol-2-carbohydrazide] | > 100 µg/mL | > 100 µg/mL | >10 μg/mL | >10 | >10 | >100 |  |
| O=C(N/N=C1\SCC(=O)N1Cc1ccccc1)c1[nH]c2ccc(F)cc2c1-c1ccccc1 [Compound 7f, N′-(3-Benzyl-4-oxo-1,3-thiazolidinon-2-ylidene)-5-fluoro-3-phenyl-1H-indol-2-carbohydrazide] | > 100 µg/mL | > 100 µg/mL | ⩾10 μg/mL | >10 | >10 | >100 |  |
| O=C(N/N=C1\SCC(=O)N1CCc1ccccc1)c1[nH]c2ccc(F)cc2c1-c1ccccc1 [Compound 7g, 5-Fluoro-N′-(4-oxo-3-phenethyl-1,3-thiazolidinon-2-ylidene)-3-phenyl-1H-indol-2-carbohydrazide] | > 100 µg/mL | > 100 µg/mL |  | >10 | >10 | 100 |  |
| NC(=O)c1ncn([C@@H]2O[C@H](CO)[C@@H](O)[C@H]2O)n1 [Ribavirin, ribavirin, reference compound] | > 250 µM | > 250 µM |  |  |  |  | EC50 ([9]; Punta Toro virus, Vero, read-out: Antiviral EC50 value, Punta Toro virus): 50 µM; MCC (compound concentration causing minimal changes in cell morphology) ([8]; ribavirin data in μM): >250 μM; EC50 [4]: 250 µM; MCC (compound concentration causing minimal changes in cell morphology) ([5]; ribavirin data in μM): >250 μM |
| dextran sulfate [DS-5000] |  |  | >100 μg/mL |  |  | >100 | Antiviral EC50 value, Punta Toro virus [9, 13]: 20 ± 0 µg/mL; Selectivity index (ratio of MCC to antiviral EC50), Punta Toro virus [9, 14]: > 5; Antiviral EC50 value, Reovirus-1 [1, 15]: >100 µg/mL; Antiviral EC50 value, Respiratory syncytial virus [3, 16]: 5.3 ± 3.3 µg/mL; Selectivity index (ratio of MCC to antiviral EC50), Respiratory syncytial virus [3]: > 19; Antiviral EC50 value, Coxsackie B4 virus [10, 16]: 40 ± 10 µg/mL; Selectivity index (ratio of MCC to antiviral EC50), Coxsackie B4 virus ([10]; value in square brackets): > 2.5; Antiviral EC50 value, Sindbis virus [4, 13]: 68 ± 32 µg/mL; Selectivity index (ratio of MCC to antiviral EC50), Sindbis virus [4, 14]: > 1.5; Antiviral EC50 value, Coxsackie B4 virus [11, 16]: ≥ 4 µg/mL; Selectivity index (ratio of MCC to antiviral EC50), Coxsackie B4 virus ([11]; value in square brackets): ≥ 25; Antiviral EC50 value, Vesicular stomatitis virus [12]: 8.0 ± 3.1 [>12] μg/mL; Selectivity index (ratio of MCC to antiviral EC50), Vesicular stomatitis virus [12]: 8.0 ± 3.1 [>12]; Antiviral EC50 value, Para-influenza-3 virus [2, 15]: >100 µg/mL |
